Experimental data taken from publication PMC12888861, “Antibacterial activity of enmetazobactam against Acinetobacter spp.: a molecular dissection of mechanism of action and resistance determinants” (Antimicrobial Agents and Chemotherapy, 2025).
Read-outs that look alike come from different tables or passages of the source.

System: A. non-baumannii isolates (n = 87)
Experiment: MIC, broth microdilution (EUCAST), A. non-baumannii isolates
Format: cell-based, Acinetobacter spp. (non-baumannii)
Conditions: for MIC: in combinations ETZ fixed at 8 mg/L
Description: The bacterial strains used in this study comprised 208 clinical isolates from the Spanish National Acinetobacter spp. 2020 Multicenter Collection, which was previously characterized in detail by our research group, including whole-genome sequencing, phylogenetics studies, clonal dynamics, and resistance mechanisms ([2], [29]). Additionally, a collection of A. baumannii ATCC 17978 transformants coding the blaOXA-23, blaOXA-24/40, blaOXA-51, blaOXA-58, blaOXA-143, and blaOXA-201 genes, previously constructed and described by our group ([30]), was used to determine the activity of enmetazobactam against strains carrying the main CHDLs of A. baumannii.
The antimicrobial susceptibility of the 208 Acinetobacter spp. isolates was assessed using the broth microdilution method, as described in the European Committee on Antimicrobial Susceptibility Testing (EUCAST) v.15 guidelines (http://www.eucast.org/clinical_breakpoints). […] MICs for enmetazobactam alone were assessed as well. […] Subsequently, MIC testing was also conducted with a collection of A. baumannii ATCC 17978 transformants expressing clinically relevant OXA-like carbapenemase genes.
The A. baumannii ATCC 19606 strain was used as the reference strain in all susceptibility experiments, in duplicate assays. Antibiotics were purchased from Sigma-Aldrich, except enmetazobactam and durlobactam, which were obtained from Advanz Pharma and MedChemExpress, respectively.

[1] = Acinetobacter, A. non-baumannii isolates (n=87), ETZ fixed 8 mg/L in combinations
[2] = […], ETZ fixed 8 mg/L in combinations

CO/N=C(\C(=O)N[C@@H]1C(=O)N2C(C(=O)[O-])=C(C[N+]3(C)CCCC3)CS[C@H]12)c1csc(N)n1 [cefepime]
0.12 µg/mL: MIC (Acinetobacter radioresistens, isolate NO-Ab215, Acinetobacter radioresistens, read-out: MIC)
4 µg/mL: MIC (Acinetobacter bereziniae, isolate NO-Ab117, Acinetobacter bereziniae, read-out: MIC) | MIC (Acinetobacter calcoaceticus, isolate NO-Ab85, Acinetobacter calcoaceticus, read-out: MIC) | MIC (Acinetobacter calcoaceticus, isolate NO-Ab108, Acinetobacter calcoaceticus, read-out: MIC) | MIC (Acinetobacter calcoaceticus, isolate NO-Ab161, Acinetobacter calcoaceticus, read-out: MIC) | MIC (Acinetobacter calcoaceticus, isolate NO-Ab198, Acinetobacter calcoaceticus, read-out: MIC) | MIC (Acinetobacter calcoaceticus, isolate NO-Ab205, Acinetobacter calcoaceticus, read-out: MIC) | MIC (Acinetobacter johnsonii, isolate NO-Ab101, Acinetobacter johnsonii, read-out: MIC) | MIC (Acinetobacter lactucae, isolate NO-Ab121, Acinetobacter dijkshoorniae, read-out: MIC) | MIC (Acinetobacter nosocomialis, isolate NO-Ab68, Acinetobacter nosocomialis, OXA-24/40, read-out: MIC) | MIC (Acinetobacter pittii, isolate NO-Ab75, Acinetobacter pittii, read-out: MIC) | MIC (Acinetobacter pittii, isolate NO-Ab97, Acinetobacter pittii, read-out: MIC) | MIC (Acinetobacter pittii, isolate NO-Ab157, Acinetobacter pittii, read-out: MIC) | MIC (Acinetobacter pittii, isolate NO-Ab178, Acinetobacter pittii, read-out: MIC) | MIC (Acinetobacter proteolyticus, isolate NO-Ab99, Acinetobacter proteolyticus, read-out: MIC) | MIC (Acinetobacter proteolyticus, isolate NO-Ab102, Acinetobacter proteolyticus, read-out: MIC) | MIC (Acinetobacter ursingii, isolate NO-Ab120, Acinetobacter ursingii, read-out: MIC) | MIC (Acinetobacter ursingii, isolate NO-Ab126, Acinetobacter ursingii, read-out: MIC) | MIC (Acinetobacter ursingii, isolate NO-Ab155, Acinetobacter ursingii, read-out: MIC) | MIC (Acinetobacter ursingii, isolate NO-Ab214, Acinetobacter ursingii, read-out: MIC) | MIC (Acinetobacter ursingii, isolate NO-Ab221, Acinetobacter ursingii, read-out: MIC) | MIC90 [1]
0.25 µg/mL: MIC (Acinetobacter radioresistens, isolate NO-Ab175, Acinetobacter radioresistens, read-out: MIC) | MIC (Acinetobacter ursingii, isolate NO-Ab3, Acinetobacter ursingii, read-out: MIC) | MIC (Acinetobacter ursingii, isolate NO-Ab87, Acinetobacter ursingii, read-out: MIC)
73.6: MIC distribution 2 [2]
96.6: MIC distribution 4 [2]
0.5 µg/mL: MIC (Acinetobacter baylyi, isolate NO-Ab27, Acinetobacter baylyi, read-out: MIC) | MIC (Acinetobacter bereziniae, isolate NO-Ab104, Acinetobacter bereziniae, read-out: MIC) | MIC (Acinetobacter dispersus, isolate NO-Ab2, Acinetobacter dispersus, read-out: MIC) | MIC (Acinetobacter junii, isolate NO-Ab76, Acinetobacter junii, read-out: MIC) | MIC (Acinetobacter lactucae, isolate NO-Ab160, Acinetobacter dijkshoorniae, read-out: MIC) | MIC (Acinetobacter pittii, isolate NO-Ab107, Acinetobacter pittii, read-out: MIC) | MIC (Acinetobacter, isolate NO-Ab159, Acinetobacter iwoffii, read-out: MIC)
4.6: MIC distribution 0.25 [2]
12.6: MIC distribution 0.5 [2]
1.1: MIC distribution 0.12
8 µg/mL: MIC (Acinetobacter pittii, isolate NO-Ab66, Acinetobacter pittii, read-out: MIC) | MIC (Acinetobacter pittii, isolate NO-Ab162, Acinetobacter pittii, read-out: MIC) | MIC (Acinetobacter ursingii, isolate NO-Ab119, Acinetobacter ursingii, read-out: MIC)
1 µg/mL: MIC (Acinetobacter bereziniae, isolate NO-Ab70, Acinetobacter bereziniae, read-out: MIC) | MIC (Acinetobacter bereziniae, isolate NO-Ab84, Acinetobacter bereziniae, read-out: MIC) | MIC (Acinetobacter bereziniae, isolate NO-Ab114, Acinetobacter bereziniae, read-out: MIC) | MIC (Acinetobacter bereziniae, isolate NO-Ab115, Acinetobacter bereziniae, read-out: MIC) | MIC (Acinetobacter bereziniae, isolate NO-Ab116, Acinetobacter bereziniae, read-out: MIC) | MIC (Acinetobacter bereziniae, isolate NO-Ab129, Acinetobacter bereziniae, read-out: MIC) | MIC (Acinetobacter bereziniae, isolate NO-Ab156, Acinetobacter bereziniae, read-out: MIC) | MIC (Acinetobacter courvalinii, isolate NO-Ab216, Acinetobacter courvalinii, read-out: MIC) | MIC (Acinetobacter haemolyticus, isolate NO-Ab177, Acinetobacter haemolyticus) | MIC (Acinetobacter junii, isolate NO-Ab77, Acinetobacter junii, OXA-24/40, read-out: MIC) | MIC (Acinetobacter lactucae, isolate NO-Ab86, Acinetobacter dijkshoorniae, read-out: MIC) | MIC (Acinetobacter pittii, isolate NO-Ab78, Acinetobacter pittii, read-out: MIC) | MIC (Acinetobacter pittii, isolate NO-Ab82, Acinetobacter pittii, read-out: MIC) | MIC (Acinetobacter pittii, isolate NO-Ab89, Acinetobacter pittii, read-out: MIC) | MIC (Acinetobacter pittii, isolate NO-Ab90, Acinetobacter pittii, read-out: MIC) | MIC (Acinetobacter pittii, isolate NO-Ab105, Acinetobacter pittii, read-out: MIC) | MIC (Acinetobacter pittii, isolate NO-Ab106, Acinetobacter pittii, read-out: MIC) | MIC (Acinetobacter pittii, isolate NO-Ab111, Acinetobacter pittii, read-out: MIC) | MIC (Acinetobacter pittii, isolate NO-Ab135, Acinetobacter pittii, read-out: MIC) | MIC (Acinetobacter pittii, isolate NO-Ab154, Acinetobacter pittii, read-out: MIC) | MIC (Acinetobacter pittii, isolate NO-Ab164, Acinetobacter pittii, read-out: MIC) | MIC (Acinetobacter proteolyticus, isolate NO-Ab210, Acinetobacter proteolyticus, read-out: MIC) | MIC (Acinetobacter ursingii, isolate NO-Ab64, Acinetobacter ursingii, read-out: MIC) | MIC (Acinetobacter ursingii, isolate NO-Ab166, Acinetobacter ursingii, read-out: MIC) | MIC (Acinetobacter ursingii, isolate NO-Ab222, Acinetobacter ursingii, read-out: MIC)
41.4: MIC distribution 1 [2]
100: MIC distribution 16 [2] | MIC distribution 32 [2]
0: MIC distribution ≤0.06 [2]
2 µg/mL: MIC (Acinetobacter beijerinckii, isolate NO-Ab122, Acinetobacter beijerinckii, read-out: MIC) | MIC (Acinetobacter calcoaceticus, isolate NO-Ab94, Acinetobacter calcoaceticus, read-out: MIC) | MIC (Acinetobacter calcoaceticus, isolate NO-Ab211, Acinetobacter calcoaceticus, read-out: MIC) | MIC (Acinetobacter guillouiae, isolate NO-Ab69, Acinetobacter guillouiae, read-out: MIC) | MIC (Acinetobacter guillouiae, isolate NO-Ab74, Acinetobacter guillouiae, read-out: MIC) | MIC (Acinetobacter haemolyticus, isolate NO-Ab92, Acinetobacter haemolyticus) | MIC (Acinetobacter haemolyticus, isolate NO-Ab217, Acinetobacter haemolyticus) | MIC (Acinetobacter lactucae, isolate NO-Ab60, Acinetobacter dijkshoorniae, read-out: MIC) | MIC (Acinetobacter lactucae, isolate NO-Ab63, Acinetobacter dijkshoorniae, read-out: MIC) | MIC (Acinetobacter lactucae, isolate NO-Ab65, Acinetobacter dijkshoorniae, read-out: MIC) | MIC (Acinetobacter lactucae, isolate NO-Ab88, Acinetobacter dijkshoorniae, read-out: MIC) | MIC (Acinetobacter lactucae, isolate NO-Ab91, Acinetobacter dijkshoorniae, read-out: MIC) | MIC (Acinetobacter lactucae, isolate NO-Ab125, Acinetobacter dijkshoorniae, read-out: MIC) | MIC (Acinetobacter nosocomialis, isolate NO-Ab43, Acinetobacter nosocomialis, read-out: MIC) | MIC (Acinetobacter nosocomialis, isolate NO-Ab98, Acinetobacter nosocomialis, read-out: MIC) | MIC (Acinetobacter nosocomialis, isolate NO-Ab208, Acinetobacter nosocomialis, read-out: MIC) | MIC (Acinetobacter pittii, isolate NO-Ab59, Acinetobacter pittii, read-out: MIC) | MIC (Acinetobacter pittii, isolate NO-Ab73, Acinetobacter pittii, read-out: MIC) | MIC (Acinetobacter pittii, isolate NO-Ab113, Acinetobacter pittii, read-out: MIC) | MIC (Acinetobacter pittii, isolate NO-Ab118, Acinetobacter pittii, read-out: MIC) | MIC (Acinetobacter pittii, isolate NO-Ab145, Acinetobacter pittii, read-out: MIC) | MIC (Acinetobacter pittii, isolate NO-Ab151, Acinetobacter pittii, read-out: MIC) | MIC (Acinetobacter pittii, isolate NO-Ab197, Acinetobacter pittii, read-out: MIC) | MIC (Acinetobacter ursingii, isolate NO-Ab103, Acinetobacter ursingii, read-out: MIC) | MIC (Acinetobacter ursingii, isolate NO-Ab123, Acinetobacter ursingii, read-out: MIC) | MIC (Acinetobacter ursingii, isolate NO-Ab147, Acinetobacter ursingii, read-out: MIC) | MIC (Acinetobacter ursingii, isolate NO-Ab165, Acinetobacter ursingii, read-out: MIC) | MIC (Acinetobacter, isolate NO-Ab146, Acinetobacter iwoffii, read-out: MIC) | MIC50 [1]
98.9: MIC distribution 8 [2]
